Drawing on patent US8119614B2, “Substitution derivatives of N6-benzyladenosine, methods of their preparation, their use for preparation of drugs, cosmetic preparations and growth regulators, pharmaceutical preparations, cosmetic preparations and growth regulators containing these compounds” (Ustav Experimentalni Botaniky Akademie Ved Ceske Republiky, priority 2002, dated 2012), this text covers IC50 for 18 compounds.

Molecules are shown by their SMILES. Like-named read-outs stand apart in the source and are kept apart here.

Assay [1] has as its system Human T-lymphoblastic leukemia cell line CEM. Briefly: In vitro cytotoxic activity, Calcein AM assay, CEM. The assay is classed as cell-based. Conditions: 72 hours. A digest of the protocol:
(§1)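 GI50 values come from dose-response curves of Calcein AM fluorescence, normalised to control wells, after 72 h compound exposure. Cells grown in DMEM with 10% fetal calf serum; routine highest concentration 166.7 μM, duplicates.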

Assay [2] relates to breast carcinoma cell lines MCF-7. Put plainly: In vitro cytotoxic activity, Calcein AM assay, MCF7. The assay is classed as cell-based, human. The following applies: read-out: IC 50 MCF7. A digest of the protocol:
as §1

Assay [3] relates to promyelocytic HL-60. Put plainly: In vitro cytotoxic activity, Calcein AM assay, HL60. Conditions: read-out: IC 50 HL60. The assay is classed as cell-based, human. In outline: as §1
In assay [4] the test system is human erythroleukaemia K562. Briefly: In vitro cytotoxic activity, Calcein AM assay, K-562. The assay is classed as cell-based. The following applies: read-out: IC 50 K-562. In outline:
as §1

Assay [5] concerns HOS. Put plainly: In vitro cytotoxic activity, Calcein AM assay, HOS. The assay is classed as cell-based. Conditions: 72 hours.
The test system of assay [6] is mouse fibroblasts NIH3T3. Briefly: In vitro cytotoxic activity, Calcein AM assay, NIH-3T3. Conditions: read-out: IC 50 NIH-3T3. It is filed as cell-based. In outline:
as §1

Assay [7] concerns human malignant melanoma cells G361. Put plainly: In vitro cytotoxic activity, Calcein AM assay, G-361. Conditions: read-out: IC 50 G-361. The assay is classed as cell-based. From the text:
One of the parameters used, as the basis for cytotoxicity assays, is the metabolic activity of viable cells. For example, a microtiter assay, which uses the Calcein AM, is now widely used to quantitate cell proliferation and cytotoxicity. For instance, this assay is used in drug screening programs and in chemosensitivity testing. Because only metabolically active cells cleave Calcein AM, these assays detect viable cells exclusively. The quantity of reduced Calcein AM corresponds to the number of vital cells in the culture.
Human T-lymphoblastic leukemia cell line CEM; promyelocytic HL-60 and monocytic U937 leukemias; breast carcinoma cell lines MCF-7; cervical carcinoma cells HELA; mouse fibroblasts NIH3T3; human erythroleukaemia K562 and human malignant melanoma cells G361 were used for routine screening of compounds. The cells were maintained in Nunc/Corning 80 cm^2 plastic tissue culture flasks and cultured in cell culture medium (DMEM with 5 g/l glucose, 2 mM glutamine, 100 U/ml penicillin, 100 μg/ml streptomycin, 10% fetal calf serum and sodium bicarbonate).
The cell suspensions that were prepared and diluted according to the particular cell type and the expected target cell density (10^4 cells per well based on cell growth characteristics) were added by pipette (80 μl) into 96/well microtiter plates. Inoculates were allowed a pre-incubation period of 24 hours at 37° C. and 5% CO2 for stabilisation. Four-fold dilutions of the intended test concentration were added at time zero in 20 μl aliquots to the microtiter plate wells. Usually, test compound was evaluated at six 4-fold dilutions. In routine testing, the highest well concentration was 166.7 μM, but it can be the matter of change dependent on the agent. All drug concentrations were examined in duplicates. Incubations of cells with the test compounds lasted for 72 hours at 37° C., in 5% CO2 atmosphere and 100% humidity. At the end of incubation period, the cells were assayed by using the Calcein AM. Ten microliters of the stock solution were pipetted into each well and incubated further for 1 hours. Fluorescence (FD) was measured with the Labsystem FIA Reader Fluoroscan Ascent (UK). The tumour cell survival (GI50) was calculated using the following equitation: GI50=(FDdrug exposed well/mean FDcontrol wells)×100%. The GI50 value, the drug concentration lethal to 50% of the tumour cells, was calculated from the obtained dose response curves (FIG. 3).

`COc1ccc(O)c(CNc2ncnc3c2ncn3[C@@H]2O[C@H](CO)[C@@H](O)[C@H]2O)c1` [2-hydroxy-5-methoxybenzylamino, 6-(2-hydroxy-5-methoxybenzylamino)purine riboside]: the IC50 is 0.2 µM in assay [1]; 21 µM in assay [2] (72 hours); 0.1 µM in assay [3] (72 hours); 15.4 µM in assay [4] (72 hours); more than 167 µM in assay [5]; more than 167 µM in assay [6] (72 hours). The IC50 in assay [7] (72 hours) was 102 µM.

Regarding `OC[C@H]1O[C@@H](n2cnc3c(NCc4ccc(O)cc4)ncnc32)[C@H](O)[C@@H]1O` [4-hydroxybenzylamino, 6-(4-hydroxybenzylamino)purine riboside], the IC50 in assay [1] was 39.7 µM; in assay [2] (72 hours), more than 167 µM; in assay [3] (72 hours) it was 9.5 µM; in assay [4] (72 hours), more than 167 µM; in assay [5], more than 167 µM; in assay [6] (72 hours), more than 167 µM. The IC50 in assay [7] (72 hours) is more than 167 µM.

On to `OC[C@H]1O[C@@H](n2cnc3c(NCc4cccc(Cl)c4O)nc(Cl)nc32)[C@H](O)[C@@H]1O` [R2 = Cl, 2-hydroxy-3-chlorobenzylamino], for which the IC50 was 0.2 µM in assay [1]; 14 µM in assay [2] (72 hours); 0.1 µM in assay [3] (72 hours); 10 µM in assay [4] (72 hours); more than 167 µM in assay [5]; more than 167 µM in assay [6] (72 hours). For the same compound, the IC50 in assay [7] (72 hours) is 118 µM.

Turning to `COc1cccc(CNc2nc(Cl)nc3c2ncn3[C@@H]2O[C@H](CO)[C@@H](O)[C@H]2O)c1O` [R2 = Cl, 2-hydroxy-3-methoxybenzylamino], the IC50 in assay [1] is 0.2 µM; in assay [2] (72 hours), 23 µM; in assay [3] (72 hours), 0.1 µM; in assay [4] (72 hours), 17 µM; in assay [5] it was more than 167 µM; in assay [6] (72 hours) it was more than 167 µM. Moreover, the IC50 in assay [7] (72 hours) is 140 µM.

Consider `OC[C@H]1O[C@@H](n2cnc3c(NCc4ccccc4O)nc(Cl)nc32)[C@H](O)[C@@H]1O` [R2 = Cl, 2-hydroxybenzylamino], for which the IC50 was 0.56 µM in assay [1]; 10.5 µM in assay [2] (72 hours); 0.38 µM in assay [3] (72 hours); 75 µM in assay [4] (72 hours); 2.5 µM in assay [5]; 35.1 µM in assay [6] (72 hours). In addition, in assay [7] (72 hours), the IC50 is more than 167 µM.

As to `COc1ccccc1CNc1nc(Cl)nc2c1ncn2C1OC(CO)C(O)C1O` (stereo not drawn) [R2 = Cl, 2-methoxyxybenzylamino], the IC50 was 2.7 µM in assay [1]; more than 167 µM in assay [2] (72 hours); 1.5 µM in assay [3] (72 hours); 14.5 µM in assay [4] (72 hours); 15.3 µM in assay [5]; more than 167 µM in assay [6] (72 hours). The IC50 in assay [7] (72 hours) is more than 167 µM.

On to `OC[C@H]1O[C@@H](n2cnc3c(NCc4cccc(F)c4)nc(Cl)nc32)[C@H](O)[C@@H]1O` [R2 = Cl, 3-fluorobenzylamino], for which the IC50 was 3 µM in assay [1]; 16 µM in assay [2] (72 hours); 0.9 µM in assay [3] (72 hours); 5.3 µM in assay [4] (72 hours); more than 167 µM in assay [5]; more than 167 µM in assay [6] (72 hours). For the same compound, the IC50 in assay [7] (72 hours) was 16 µM.

For the compound `OC[C@H]1O[C@@H](n2cnc3c(NCc4cccc(O)c4)nc(Cl)nc32)[C@H](O)[C@@H]1O` [R2 = Cl, 3-hydroxybenzylamino], the IC50 in assay [1] is 47.8 µM; in assay [2] (72 hours) it was more than 167 µM; in assay [3] (72 hours), 15.9 µM; in assay [4] (72 hours) it was more than 167 µM; in assay [5] it was more than 167 µM; in assay [6] (72 hours) it was more than 167 µM. Further, the IC50 in assay [7] (72 hours) is more than 167 µM.

`COc1cccc(CNc2nc(Cl)nc3c2ncn3[C@@H]2O[C@H](CO)[C@@H](O)[C@H]2O)c1` [R2 = Cl, 3-methoxyxybenzylamino, 2-chloro-6-(3-methoxybenzylamino)purine riboside]: the IC50 was 6.5 µM in assay [1]; more than 167 µM in assay [2] (72 hours); 4.1 µM in assay [3] (72 hours); more than 167 µM in assay [4] (72 hours); more than 167 µM in assay [5]; more than 167 µM in assay [6] (72 hours). Further, the IC50 in assay [7] (72 hours) was more than 167 µM.

In the case of `OC[C@H]1O[C@@H](n2cnc3c(NCc4ccc(O)cc4)nc(Cl)nc32)[C@H](O)[C@@H]1O` [R2 = Cl, 4-hydroxybenzylamino], the IC50 in assay [1] is 39.7 µM; in assay [2] (72 hours), more than 167 µM; in assay [3] (72 hours) it was 9.5 µM; in assay [4] (72 hours), more than 167 µM; in assay [5] it was more than 167 µM; in assay [6] (72 hours), more than 167 µM. Moreover, the IC50 in assay [7] (72 hours) is more than 167 µM.

With `COc1ccc(CNc2nc(Cl)nc3c2ncn3[C@@H]2O[C@H](CO)[C@@H](O)[C@H]2O)cc1` [R2 = Cl, 4-methoxyxybenzylamino], the IC50 in assay [1], in assay [2] (72 hours), in assay [3] (72 hours), in assay [4] (72 hours), in assay [5] and in assay [6] (72 hours) was more than 167 µM each time. Also, the IC50 in assay [7] (72 hours) is 105 µM.

`COc1ccccc1CNc1nc(N)nc2c1ncn2[C@@H]1O[C@H](CO)[C@@H](O)[C@H]1O` [R2 = NH2,2-methoxyxybenzylamino, 2-amino-6-(2-methoxybenzylamino)purine riboside]: the IC50 in assay [1] is 12.8 µM; in assay [2] (72 hours), more than 167 µM; in assay [3] (72 hours) it was 7.8 µM; in assay [4] (72 hours) it was 34.9 µM; in assay [5] it was 27.8 µM; in assay [6] (72 hours), more than 167 µM. Besides, in assay [7] (72 hours), the IC50 was more than 167 µM.

`Nc1nc(NCc2cccc(F)c2)c2ncn([C@@H]3O[C@H](CO)[C@@H](O)[C@H]3O)c2n1` [R2 = NH2,3-fluorobenzylamino]: the IC50 in assay [1] is 21 µM; in assay [2] (72 hours), 36 µM; in assay [3] (72 hours), 3.4 µM; in assay [4] (72 hours), 12 µM; in assay [5], more than 167 µM; in assay [6] (72 hours) it was more than 167 µM. Also, the IC50 in assay [7] (72 hours) was 21 µM.

As to `COc1cccc(CNc2nc(N)nc3c2ncn3[C@@H]2O[C@H](CO)[C@@H](O)[C@H]2O)c1` [R2 = NH2,3-methoxyxybenzylamino], the IC50 in assay [1] was 13.8 µM; in assay [2] (72 hours) it was more than 167 µM; in assay [3] (72 hours), 8.9 µM; in assay [4] (72 hours), more than 167 µM; in assay [5] it was more than 167 µM; in assay [6] (72 hours) it was more than 167 µM. In assay [7] (72 hours), the IC50 was more than 167 µM.

As to `COc1ccccc1CNc1nc(SC)nc2c1ncn2[C@@H]1O[C@H](CO)[C@@H](O)[C@H]1O` [R2 = SCH3,2-methoxyxybenzylamino], the IC50 in assay [1] was 11.5 µM; in assay [2] (72 hours) it was more than 167 µM; in assay [3] (72 hours), 10.2 µM; in assay [4] (72 hours), 34.8 µM; in assay [5], 34.3 µM; in assay [6] (72 hours), more than 167 µM. For the same compound, the IC50 in assay [7] (72 hours) was more than 167 µM.

`CSc1nc(NCc2cccc(F)c2)c2ncn([C@@H]3O[C@H](CO)[C@@H](O)[C@H]3O)c2n1` [R2 = SCH3,3-fluorobenzylamino]: the IC50 was 8.5 µM in assay [1]; 31 µM in assay [2] (72 hours); 5.2 µM in assay [3] (72 hours); 7.9 µM in assay [4] (72 hours); more than 167 µM in assay [5]; more than 167 µM in assay [6] (72 hours). In assay [7] (72 hours), the IC50 is 28 µM.

On to `COc1cccc(CNc2nc(SC)nc3c2ncn3[C@@H]2O[C@H](CO)[C@@H](O)[C@H]2O)c1` [R2 = SCH3,3-methoxyxybenzylamino], for which the IC50 is 16.5 µM in assay [1]; more than 167 µM in assay [2] (72 hours); 8.8 µM in assay [3] (72 hours); more than 167 µM in assay [4] (72 hours); more than 167 µM in assay [5]; more than 167 µM in assay [6] (72 hours). Further, the IC50 in assay [7] (72 hours) was more than 167 µM.

For the compound `Nc1ncnc2c1ncn2[C@@H]1O[C@H](CO)[C@@H](O)[C@H]1O` [adenosine], the IC50 was more than 167 µM in assay [1] (Homo sapiens); more than 167 µM in assay [2] (Homo sapiens, MCF7, 72 hours); more than 167 µM in assay [3] (Homo sapiens, HL-60, 72 hours); more than 167 µM in assay [4] (Homo sapiens, K562, 72 hours); more than 167 µM in assay [5] (Homo sapiens, HOS); more than 167 µM in assay [6] (Mus musculus, NIH3T3, 72 hours). The IC50 in assay [7] (Homo sapiens, G-361, 72 hours) was more than 167 µM.
